Measurements as given in patent publication US20100160386A1, “4-PHENOXY-NICOTINE ACID DERIVATIVES AND USE THEREOF AS PPAR-MODULATORS” (BAYER SCHERING PHARMA AKTIENGESELLSCHAFT, priority 2006, published 2010).

target: T1, human PPARα-receptor (Homo sapiens, UniProt Q07869); assay: Cellular transactivation assay (GAL4-PPARα chimera, luciferase reporter in CHO cells); assay type: cell-based; conditions: CHO cells stably expressing GAL4-PPARα chimera and luciferase reporter; stimulation time 6 h
T1 construct: expressed in transfected cells
T1 sequence (Q07869 167-468): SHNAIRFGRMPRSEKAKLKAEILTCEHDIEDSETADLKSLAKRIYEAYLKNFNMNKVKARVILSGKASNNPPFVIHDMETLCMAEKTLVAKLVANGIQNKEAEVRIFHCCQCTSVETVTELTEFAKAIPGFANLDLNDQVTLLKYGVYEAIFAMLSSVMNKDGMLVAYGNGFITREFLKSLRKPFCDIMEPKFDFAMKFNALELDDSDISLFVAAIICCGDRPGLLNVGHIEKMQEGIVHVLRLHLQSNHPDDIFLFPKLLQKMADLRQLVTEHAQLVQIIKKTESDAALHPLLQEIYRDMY
Text: A cellular assay is used to identify activators of the peroxisome proliferator-activated receptor alpha (PPAR-alpha).
Since mammalian cells contain different endogenous nuclear receptors which can complicate unambiguous interpretation of the results, an established chimera system is used, in which the ligand binding domain of the human PPARα-receptor is fused to the DNA binding domain of the yeast transcription factors GAL4. The GAL4-PPARα chimera thus formed is co-transfected and expressed stably in CHO cells with a reporter construct.
The GAL4-PPARα expression construct contains the ligand binding domain of PPARα (amino acids 167-468), which is PCR-amplified and cloned into the vector pcDNA3.1. This vector already contains the GAL4 DNA binding domain (amino acids 1-147) of the vector pFC2-dbd (Stratagene). The reporter construct, which contains five copies of the GAL4 binding site upstream of a thymidine kinase promoter, leads to the expression of firefly luciferase (Photinus pyralis) after activation and binding of GAL4-PPARα.
The day before the test, CHO (Chinese hamster ovary) cells which stably express the above-described GAL4-PPARα chimera and luciferase reporter gene construct are plated out in 96-hole microtiter plates with 1×10^3 cells in medium (Optimem, GIBCO), 2% activated carbon-purified fetal calf serum (Hyclone), 1.35 mM sodium pyruvate (GIBCO), 0.2% sodium bicarbonate (GIBCO), and kept in a cell incubator (air humidity 96%, 5% v/v CO2, 37° C.). On the day of the test, the substances to be tested are taken up in abovementioned medium, but without addition of calf serum, and added to the cells. After a stimulation time of 6 h, the luciferase activity is measured with the aid of a video camera. The relative light units measured give a sigmoid stimulation curve as a function of the substance concentration. The EC50 values are calculated with the aid of the computer program GraphPad PRISM (Version 3.02).

| EC50 [nM] | SMILES |
| --- | --- |
| 59 | Cc1ccc(-c2cc(Oc3ccccc3Cl)c(C(=O)O)cn2)cc1F [Example 1, 4-(2-Chlorophenoxy)-6-(3-fluoro-4-methylphenyl)nicotinic acid] |
| 200 | COc1ccc(Cl)c(Oc2cc(-c3cc(F)cc(F)c3)ncc2C(=O)O)c1 [Example 7, 4-(2-Chloro-5-methoxyphenoxy)-6-(3,5-difluorophenyl)nicotinic acid] |
| 235 | COc1ccc(Oc2cc(-c3ccc(C)c(F)c3)ncc2C(=O)O)c(Cl)c1 [Example 9, 4-(2-Chloro-4-methoxyphenoxy)-6-(3-fluoro-4-methylphenyl)nicotinic acid] |
